Where a SMILES comes first, the peptide text is derived from it. Bridges are numbered along the chain shown (N, C = ends). [ ]: non-standard residue; d: D form. The star is where a group is joined. hPhe(3-Cl-4-CF3) = N[C@@H](CCc1ccc(C(F)(F)F)c(Cl)c1)C(=O)O; NPrPhe(4-CF3) = CCCN[C@@H](Cc1ccc(C(F)(F)F)cc1)C(=O)O; NMeGly(cPent) = CN[C@H](C(=O)O)C1CCCC1; Pro(4,4-F2) = O=C(O)[C@@H]1CC(F)(F)CN1; NMeD = CN[C@@H](CC(=O)O)C(=O)O; NMeL = CN[C@@H](CC(C)C)C(=O)O; Morpholide = C1CN(*)CCO1; Ac5c = NC1(C(=O)O)CCCC1; Aze = O=C(O)[C@@H]1CCN1; Sar = CNCC(=O)O
Legend:
[1] = biological target: GDP-bound NRAS wild-type protein (Homo sapiens, UniProt P01111); assay: Binding to NRAS by surface plasmon resonance (SPR), Single Cycle Kinetics; conditions: for NRAS/KRAS (ratio of KD value with respect to NRAS to KD value with respect to KRAS) / NRAS/KRAS (ratio of KD value for NRAS to KD value for KRAS): GDP-bound NRAS wild-type vs GDP-bound KRAS wild-type
GDP-bound NRAS wild-type protein, sequence (P01111 whole entry): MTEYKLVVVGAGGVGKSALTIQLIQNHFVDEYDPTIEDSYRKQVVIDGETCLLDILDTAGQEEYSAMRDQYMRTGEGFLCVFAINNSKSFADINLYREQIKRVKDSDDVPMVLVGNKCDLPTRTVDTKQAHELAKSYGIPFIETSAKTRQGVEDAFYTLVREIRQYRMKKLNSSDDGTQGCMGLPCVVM

[2] = biological target: GDP-bound HRAS wild-type protein (Homo sapiens, UniProt P01112); assay: Binding to HRAS by surface plasmon resonance (SPR), Single Cycle Kinetics; conditions: for HRAS/KRAS (ratio of KD value with respect to HRAS to KD value with respect to KRAS) / HRAS/KRAS (ratio of KD value for HRAS to KD value for KRAS): GDP-bound HRAS wild-type vs GDP-bound KRAS wild-type
GDP-bound HRAS wild-type protein, sequence (P01112 whole entry): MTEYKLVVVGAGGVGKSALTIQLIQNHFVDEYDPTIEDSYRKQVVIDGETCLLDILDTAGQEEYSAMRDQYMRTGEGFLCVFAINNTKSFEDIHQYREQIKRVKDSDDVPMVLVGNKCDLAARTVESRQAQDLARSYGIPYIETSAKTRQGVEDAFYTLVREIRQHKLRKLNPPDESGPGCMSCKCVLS

CCCN1C(=O)[C@@H]2CCN2C(=O)CN(C)C(=O)[C@H]([C@@H](C)CC)NC(=O)[C@H](CC(C)C)N(C)C(=O)C[C@@H](C(=O)N2CCOCC2)N(C)C(=O)[C@H](C2CCCC2)N(C)C(=O)C2(CCCC2)NC(=O)[C@@H]2CC(F)(F)CN2C(=O)[C@H](CCc2ccc(C(F)(F)F)c(Cl)c2)NC(=O)CN(C)C(=O)[C@@H]1Cc1ccc(C(F)(F)F)cc1 [PP0408] ([NMeL]I[Sar][Aze][NPrPhe(4-CF3)][Sar][hPhe(3-Cl-4-CF3)][Pro(4,4-F2)][Ac5c][NMeGly(cPent)][NMeD]-Morpholide; lactam N-11)
NRAS/KRAS (ratio of KD for GDP-bound NRAS wild-type to KD for KRAS) ([1]; KD ratio NRAS/KRAS, SPR): C (A compound having a KD ratio of 0.1 or more and less than 3 is denoted as C)
HRAS/KRAS (ratio of KD for GDP-bound HRAS wild-type to KD for KRAS) ([2]; KD ratio HRAS/KRAS, SPR): B (a compound having 3 or more and less than 10 is denoted as B)

CCO[C@@H]1C[C@H]2C(=O)NC3(CCC3)C(=O)N(C)[C@@H](C3CCCC3)C(=O)N(C)[C@H](C(=O)N(C)CCOC)CC(=O)N(C)[C@@H](CC)C(=O)N[C@@H]([C@@H](C)CC)C(=O)N(C)CC(=O)N(C)[C@H]3C/C=C\CCN(C3=O)[C@@H](Cc3ccc(C(F)(F)F)cc3)C(=O)N(C)CC(=O)N[C@@H](CCc3ccc4sccc4c3)C(=O)N2C1 [PP1322]
NRAS/KRAS (ratio of KD value for GDP-bound NRAS wild-type protein to KD value for KRAS) ([1]; SPR, KD ratio class): A (a compound having 10 or more and less than 20 is denoted as A)
HRAS/KRAS (ratio of KD value for GDP-bound HRAS wild-type protein to KD value for KRAS) ([2]; SPR, KD ratio class): A (a compound having 10 or more and less than 20 is denoted as A)

CCO[C@@H]1C[C@H]2C(=O)NC3(CC(C)(C)C3)C(=O)N(C)[C@@H](C(CC)CC)C(=O)N(C)[C@H](C(=O)N(C)C)CC(=O)N(C)[C@@H](C(C)C)C(=O)N[C@@H]([C@@H](C)CC)C(=O)N(C)CC(=O)N(C)[C@H]3C/C=C\CCN(C3=O)[C@@H](Cc3ccc(C)cc3)C(=O)N(C)CC(=O)N[C@@H](CCc3ccc(Cl)c(Cl)c3)C(=O)N2C1 [PP2122]
NRAS/KRAS (ratio of KD value with respect to NRAS to KD value with respect to KRAS) ([1]; SPR): AA (a compound having 20 or more is denoted as AA)
HRAS/KRAS (ratio of KD value with respect to HRAS to KD value with respect to KRAS) ([2]; SPR): A (a compound having 10 or more and less than 20 is denoted as A)

CCC(CC)[C@H]1C(=O)N(C)[C@H](C(=O)N(C)C)CC(=O)N(C)[C@@H](COC)C(=O)N[C@@H]([C@@H](C)CC)C(=O)N(C)CC(=O)N(C)[C@H]2C/C=C\CCN(C2=O)[C@@H](Cc2ccc(C(F)(F)F)cc2)C(=O)N(C)CC(=O)N[C@@H](CCc2cc(F)c(C(F)(F)F)c(F)c2)C(=O)N2CCCC[C@H]2C(=O)NC2(CC(C)(C)C2)C(=O)N1C [PP2916]
NRAS/KRAS (ratio of KD value with respect to GDP-bound NRAS wild-type protein to KD value with respect to KRAS) ([1]; KD ratio NRAS/KRAS, class symbols): A (a compound having 10 or more and less than 20 is denoted as A)
HRAS/KRAS (ratio of KD value with respect to GDP-bound HRAS wild-type protein to KD value with respect to KRAS) ([2]; KD ratio HRAS/KRAS, class symbols): A (a compound having 10 or more and less than 20 is denoted as A)

CC[C@H](C)[C@@H]1NC(=O)[C@H](CC)N(C)C(=O)C[C@@H](C(=O)N(C)C)N(C)C(=O)[C@H](C2CCCC2)N(C)C(=O)C2(CC(C)(C)C2)NC(=O)[C@@H]2C[C@H](C)CN2C(=O)[C@H](CCc2ccc(C(F)(F)F)c(OC)c2)NC(=O)CN(C)C(=O)[C@H](Cc2ccc(C)cc2)N2CC/C=C\C[C@@H](C2=O)N(C)C(=O)CN(C)C1=O [PP1836]
NRAS/KRAS (ratio of KD value for NRAS to KD value for KRAS) ([1]; KD ratio, SPR): A (a compound having 10 or more and less than 20 is denoted as A)
HRAS/KRAS (ratio of KD value for HRAS to KD value for KRAS) ([2]; KD ratio, SPR): B (a compound having 3 or more and less than 10 is denoted as B)

CCCO[C@H](C)[C@@H]1NC(=O)[C@H](CC(C)C)N(C)C(=O)C[C@@H](C(=O)N(C)C)N(C)C(=O)[C@H](C2CCCC2)N(C)C(=O)C2(CC(C)(C)C2)NC(=O)[C@@H]2C[C@@H](OCC)CN2C(=O)[C@H](CCc2cc(F)c(C(F)(F)F)c(F)c2)NC(=O)CN(C)C(=O)[C@H](Cc2ccc(C(F)(F)F)cc2)N2CC/C=C\C[C@@H](C2=O)N(C)C(=O)CN(C)C1=O [PP1921]
NRAS/KRAS (ratio of KD value for NRAS to KD value for KRAS) ([1]; KD ratio, SPR): A (a compound having 10 or more and less than 20 is denoted as A)
HRAS/KRAS (ratio of KD value for HRAS to KD value for KRAS) ([2]; KD ratio, SPR): A (a compound having 10 or more and less than 20 is denoted as A)

CCO[C@@H]1C[C@H]2C(=O)NC3(CCC3)C(=O)N(C)[C@@H](C3CCCC3)C(=O)N(C)[C@H](C(=O)N(C)C)CC(=O)N(C)[C@@H](CC3CCC3)C(=O)N[C@@H]([C@@H](C)CC)C(=O)N(C)CC(=O)N(C)[C@H]3C/C=C\CCN(C3=O)[C@@H](Cc3ccc(C(F)(F)F)cc3)C(=O)N(C)CC(=O)N[C@@H](CCc3cc(F)c(C(F)(F)F)c(F)c3)C(=O)N2C1 [PP1118]
NRAS/KRAS (ratio of KD value with respect to NRAS to KD value with respect to KRAS) ([1]; KD ratio, SPR): A (a compound having 10 or more and less than 20 is denoted as A)
HRAS/KRAS (ratio of KD value with respect to HRAS to KD value with respect to KRAS) ([2]; KD ratio, SPR): B (a compound having 3 or more and less than 10 is denoted as B)

C=CCCC[C@H]1C(=O)N[C@@H]([C@@H](C)CC)C(=O)N(C)CC(=O)N(C)[C@H]2CCCCN(C2=O)[C@@H](Cc2ccc(C(F)(F)F)cc2)C(=O)N(C)CC(=O)N[C@@H](CCc2cc(F)c(C(F)(F)F)c(F)c2)C(=O)N2C[C@H](OCC)C[C@H]2C(=O)N[C@](C)(CC=C)C(=O)N(C)[C@@H](C2CCCC2)C(=O)N(C)[C@H](C(=O)N2CCOCC2)CC(=O)N1C [PP0876]
NRAS/KRAS (ratio of KD value with respect to NRAS to KD value with respect to KRAS) ([1]; KD ratio, SPR): C (A compound having a KD ratio of 0.1 or more and less than 3 is denoted as C)
HRAS/KRAS (ratio of KD value with respect to HRAS to KD value with respect to KRAS) ([2]; KD ratio, SPR): C (A compound having a KD ratio of 0.1 or more and less than 3 is denoted as C)
